Measured values published in patent US20090118135A1, “METHODS AND COMPOUNDS FOR REGULATING APOPTOSIS” (The Burnham Institute, priority 2007, published 2009).

Biological target: T1, GST-Bfl-1 (Homo sapiens, UniProt Q16548)
T1 construct: lacking their C-terminal transmembrane domains (about the last 20 amino acids) (“ΔTM”); made in house; host or cells: XL-1 Blue E. coli, pGEX 4T-1
T1 sequence (Q16548 1-155 limits assumed): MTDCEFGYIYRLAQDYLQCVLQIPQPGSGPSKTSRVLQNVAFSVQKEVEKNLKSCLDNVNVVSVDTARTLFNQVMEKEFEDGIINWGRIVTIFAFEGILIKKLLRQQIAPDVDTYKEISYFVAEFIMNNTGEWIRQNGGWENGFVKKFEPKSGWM
Assay: Bfl-1/FITC-Bid BH3 competitive fluorescence polarization assay
Format: binding
Conditions: primary HTS hits, MLSCN library (PubChem SIDs), Table 5B
Protocol: A FPA was performed to determine the binding affinity of FITC-Bid BH3 peptide to Bcl-2 proteins. […] IC50 determinations were performed using GraphPad Prism software (GraphPad, Inc., San Diego, Calif.). FPA competition assays were performed using the same procedure described above, except that 100 nM of GST-Bfl-1 protein in a volume of 45 μl was incubated with 5 μl (50 μM) test compounds in DMSO per well for 30 min prior to addition of 50 μl (5 nM) FITC-Bid BH3 peptide. The final DMSO concentration was 5% when the reactions brought to fall volume of 100 μl. Fluorescence polarization was measured after 10 min. Compounds that reduced the fluorescence polarization by 50% were considered hits.

## Cc1cc(C)nc(Nc2ccc(N3CCCC3)cc2)n1 [Compound 4256031]
  % Activity: 108.1%
  FRatio: 0.2

## O=C(c1coc(=O)c(Br)c1)N1CCOCC1 [Compound 860621]
  % Activity: 84.9%
  FRatio: 0.55

## CC(=N)/C(C#N)=C(/O)CSc1nnc(NC(C)C)s1 [Compound 3717601]
  % Activity: 84.1%
  FRatio: 0.47

## ClC1=CCC2CN(CCN3CCCCC3)CC2C1 (centres unmarked) [Compound 860752]
  % Activity: 67.7%
  FRatio: 0.79

## CC1(C)CCCN(C(=O)c2coc(=O)c(Br)c2)C1 [Compound 862800]
  % Activity: 80.8%
  FRatio: 0.65

## O=C(Nc1ccc(N2CCCC2)cc1)C(c1ccccc1)c1ccccc1 [Compound 14730995]
  % Activity: 64.1%
  FRatio: 0.9

## CCOc1cc(/C=C2\C(=O)N(c3nc(-c4ccc(Br)cc4)cs3)N=C2c2ccccc2)ccc1O [Compound 14733887]
  % Activity: 68.2%
  FRatio: 0.76

## O=C(c1cc2c(s1)CCC2)N1CCN(c2ccccc2)CC1 [Compound 14745443]
  % Activity: 71.6%
  FRatio: 0.73

## Cc1ccc(CNc2ccc3c(c2)OCO3)cc1 [Compound 4257119]
  % Activity: 50.6%
  FRatio: 1.2

## CCC1=[N+](C)CCn2c(C)ccc21 [Compound 14734567]
  % Activity: 57.1%
  FRatio: 1

## Cc1ccc2cccc(S(=O)(=O)Nc3ccc4c(c3)OCO4)c2n1 [Compound 4262919]
  % Activity: 80.6%
  FRatio: 0.67

## O=c1c2cc(N3CCOCC3)ccc2[nH]c(=S)n1CCCN1CCCCCC1 [Compound 4251175]
  % Activity: 62.3%
  FRatio: 0.65

## COc1ccc(Nc2cc(C)nc3nc(C)nn23)cc1Cl [Compound 7967129]
  % Activity: 82.3%
  FRatio: 1.11

## Brc1ccc2ncnc(Nc3ccc(N4CCOCC4)cc3)c2c1 [Compound 7975247]
  % Activity: 86.8%
  FRatio: 0.87

## Cc1c(C(=O)OCC2CCCO2)[nH]c2c1C(=O)CC(c1ccco1)C2 (centres unmarked) [Compound 4244684]
  % Activity: 54.3%
  FRatio: 0.79

## CCCCNC(=O)COC(=O)c1ccc(Cl)c(S(=O)(=O)N2CCCC2)c1 [Compound 16952426]
  % Activity: 54.8%
  FRatio: 0.92

## CC(=N)/C(C#N)=C(/O)CSc1nnc(Nc2c(C)cccc2C)s1 [Compound 3715042]
  % Activity: 63.1%
  FRatio: 0.63

## COc1ccc2c(c1)c(=O)oc1cc(OCC(=O)NC3CCCCC3)ccc12 [Compound 14730237]
  % Activity: 78.9%
  FRatio: 0.91

## CSc1nc2n(n1)C(c1ccccn1)C1=C(O)CC(C)(C)CC1=N2 (centres unmarked) [Compound 14742716]
  % Activity: 61.8%
  FRatio: 0.84

## COc1ccc(NC(=O)c2cc(CN3C(=O)c4ccccc4C3=O)ccc2OC)cn1 [Compound 3713992]
  % Activity: 66.9%
  FRatio: 1.47

## Cc1ccc(OCC(=O)Nc2ccc(N3CCCC3)cc2)cc1C [Compound 7974807]
  % Activity: 90.6%
  FRatio: 0.76

## CN(C)c1ccc(NC(=O)CN2C(=O)CN=C(c3ccccc3)c3cc(Cl)ccc32)cc1 [Compound 14738707]
  % Activity: 66.4%
  FRatio: 0.84

## C=CCn1c(SCC(=O)c2ccc(O)c(O)c2)nnc1-c1ccccc1OC [Compound 863840]
  % Activity: 54.2%
  FRatio: 0.88

## CCCC1=C(C(=O)OCC)C(c2cc(Cl)cc(OC)c2OCC(=O)OCC)NC(=O)N1 (centres unmarked) [Compound 4262430]
  % Activity: 50.9%
  FRatio: 1.19

## O=C1c2ccccc2C(=O)N1CC#CCN1CCN(C2CCCCC2)CC1 [Compound 856035]
  % Activity: 56.3%
  FRatio: 0.7

## CC(=O)Nc1ccc(OC(=O)CC2SC(=O)NC2=O)cc1 (centres unmarked) [Compound 860139]
  % Activity: 68.2%
  FRatio: 1.06

## CSc1ccccc1NC(=O)c1noc2c1CCC2 [Compound 4244309]
  % Activity: 75.7%
  FRatio: 0.44

## COC(=O)CNc1c(-c2ccccn2)nc2ccc(Br)cn12 [Compound 4251133]
  % Activity: 51.2%
  FRatio: 1.16

## COc1ccccc1-c1nnc2sc(-c3cnccn3)nn12 [Compound 4265558]
  % Activity: 75.3%
  FRatio: 0.59

## COC(=O)c1[nH]c2ccc(C)cc2c1NC(=O)CCN1CCN(Cc2ccc3c(c2)OCO3)CC1 [Compound 862218]
  % Activity: 69.7%
  FRatio: 0.81

## c1ccc(-c2nn3c(Cn4nnc5ccccc54)nnc3s2)nc1 [Compound 865899]
  % Activity: 82.6%
  FRatio: 1.32

## C=CCN1C(=O)/C(=C2/C(=O)N(CC(=O)O)c3ccccc32)S/C1=N\c1nccs1 [Compound 17401584]
  % Activity: 131.8%
  FRatio: 0.83

## O=C(N/N=C/c1ccc(F)cc1)c1cc(-c2ccco2)nc2ccccc12 [Compound 17408998]
  % Activity: 84.8%
  FRatio: 0.87

## Cc1cc2cc(CN(Cc3ccco3)S(=O)(=O)c3c(C)ccc4nsnc34)c(O)nc2cc1C [Compound 14720830]
  % Activity: 56%
  FRatio: 1.29

## COc1ccc(N2Cc3cccc(C(=O)O)c3C2=O)cc1 [Compound 7969281]
  % Activity: 113.7%
  FRatio: 0.86

## CCOc1ccc2nc(O)c(O)nc2c1 [Compound 4261310]
  % Activity: 69.6%
  FRatio: 1.46

## O=C(COC(=O)c1cccs1)NCc1ccco1 [Compound 3712480]
  % Activity: 79.7%
  FRatio: 0.96

## COc1ccc(C2C=C(c3ccc(Br)cc3)Nc3nc(NS(C)(=O)=O)nn32)cc1 (centres unmarked) [Compound 17401655]
  % Activity: 54.6%
  FRatio: 1.46

## N=c1c(C(=O)NCC2CCCO2)cc2c(=O)n3ccccc3nc2n1Cc1cccnc1 (centres unmarked) [Compound 844196]
  % Activity: 63.4%
  FRatio: 0.93

## Cn1c(C(C#N)C2=C(Cl)C(=O)N(c3ccccc3)C2=O)nc2ccccc21 (centres unmarked) [Compound 3716185]
  % Activity: 89.8%
  FRatio: 0.68

## CCSc1nnc(NC(=O)c2cnccn2)s1 [Compound 7977261]
  % Activity: 58.3%
  FRatio: 1.19

## O=C(Nc1ccccc1N1CCOCC1)c1cc(-c2ccco2)nc2ccccc12 [Compound 14744733]
  % Activity: 61.4%
  FRatio: 0.83

## Cc1cc(OCC(=O)Nc2ccc(N3CCCC3)cc2)cc(C)c1Cl [Compound 14734365]
  % Activity: 59.3%
  FRatio: 0.71

## O=C(Nc1ccccc1C(=O)O)c1ccccc1 [Compound 14723278]
  % Activity: 85.4%
  FRatio: 0.87

## COc1cc(CC(=O)OCC(=O)Nc2ncc(Cl)cc2Cl)cc(OC)c1OC [Compound 3714968]
  % Activity: 54%
  FRatio: 1.42

## Cc1c(Cl)cnc(NC(=O)COC(=O)C(NC(=O)c2ccco2)C(C)C)c1Cl (centres unmarked) [Compound 3711777]
  % Activity: 108.1%
  FRatio: 0.66

## O=C(CCN1CCc2ccccc21)c1ccc2c(c1)OCCO2 [Compound 857910]
  % Activity: 79.4%
  FRatio: 0.24

## COc1cc2c(C#N)c(N3CCN(C)CC3)nc(N)c2c(N)n1 [Compound 14746488]
  % Activity: 51.4%
  FRatio: 0.92

## CCCCCc1nnc(NC(=O)Cc2cccs2)s1 [Compound 4259217]
  % Activity: 69.2%
  FRatio: 0.51

## O=[N+]([O-])c1cc(/C=N/Nc2nccs2)ccc1O [Compound 14746394]
  % Activity: 107%
  FRatio: 0.75

## CC(=N)/C(C#N)=C(\O)CSc1nc2ccccc2[nH]1 [Compound 17385704]
  % Activity: 105.8%
  FRatio: 0.67

## O=C1NC(=O)[C@]2(Cc3ccccc3N3CCN(c4ccccc4)CC32)C(=O)N1c1ccccc1 (some centres unmarked) [Compound 865821]
  % Activity: 53.1%
  FRatio: 1.21

## CC(=O)Nc1ccc(S(=O)(=O)/N=C2/C(=O)c3ccccc3C(O)=C2N2CCN(Cc3ccccc3)CC2)cc1 [Compound 14742166]
  % Activity: 50.6%
  FRatio: 0.73

## FC(F)(F)c1cnc(Nc2ccc(N3CCOCC3)cc2)c(Cl)c1 [Compound 3713921]
  % Activity: 51.4%
  FRatio: 0.51

## CCn1c(CSc2nc3ccccc3s2)nnc1SCC(=O)c1ccc(O)c(O)c1 [Compound 17388455]
  % Activity: 74.1%
  FRatio: 0.8

## Cc1ccc(-[n+]2c(-c3ccc(Br)cc3)cn3c2CCc2ccc4cccnc4c2-3)cc1 [Compound 14745910]
  % Activity: 56.2%
  FRatio: 0.81

## COCc1cc(C2SCC(=O)Nc3c2c(O)nn3C(C)C)ccc1OC (centres unmarked) [Compound 4258907]
  % Activity: 67.1%
  FRatio: 1.2

## c1coc(C2Nc3cccc4cccc(c34)N2)c1 [Compound 844697]
  % Activity: 78.1%
  FRatio: 1.08

## O=C1CCCC2=C1C(c1ccco1)Nc1ccc3ccccc3c12 (centres unmarked) [Compound 7975176]
  % Activity: 52.2%
  FRatio: 0.73

## CC(=O)c1ccc(NC(=O)c2ccc3nc(-c4ccco4)c(-c4ccco4)nc3c2)cc1 [Compound 14740115]
  % Activity: 59.5%
  FRatio: 0.97

## O=C(OCC(=O)N1CCN(C(=O)c2ccco2)CC1)c1cc(-c2ccco2)nc2ccccc12 [Compound 14745657]
  % Activity: 73.4%
  FRatio: 0.97
